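Exposure lasted 48 hours, with cells grown in 96-well plates and compounds tested at five concentrations. GI50 is the concentration that inhibits growth by half.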 Calls of active or inactive are those of the source. No stated cut-off is given here; in the data, active = GI50 up to about 1.1 µM and inactive = higher.
What was measured:
Assay in all cases: NCI-60 cell line screen, 48 h
HOP-62 = test system: HOP-62
DU-145 = test system: DU-145
K562 = test system: K562
MDA-N = test system: MDA-N
SN12C = test system: SN12C
SK-MEL-5 = test system: SK-MEL-5
EKVX = test system: EKVX
SK-MEL-2 = test system: SK-MEL-2
786-0 = test system: 786-0
NCI/ADR-RES = test system: NCI/ADR-RES
NCI-H23 = test system: NCI-H23
HCC 2998 = test system: HCC 2998
MCF7 = test system: MCF7
NCI-H522 = test system: NCI-H522
A498 = test system: A498
CAKI-1 = test system: CAKI-1
A549 = test system: A549
SR = test system: SR
SF-295 = test system: SF-295
HL-60 = test system: HL-60
LOX IMVI = test system: LOX IMVI
TK-10 = test system: TK-10
SK-OV-3 = test system: SK-OV-3
U-251 = test system: U-251
ACHN = test system: ACHN
T47D = test system: T47D
SF-539 = test system: SF-539
NCI-H460 = test system: NCI-H460
PC-3 = test system: PC-3
NCI-H226 = test system: NCI-H226
MDA-MB-435 = test system: MDA-MB-435
SW-620 = test system: SW-620
SF-268 = test system: SF-268
OVCAR-5 = test system: OVCAR-5
COLO 205 = test system: COLO 205
UACC-257 = test system: UACC-257
Hs-578T = test system: Hs-578T
KM12 = test system: KM12
UACC-62 = test system: UACC-62
SNB-75 = test system: SNB-75
SNB-19 = test system: SNB-19
HCT-15 = test system: HCT-15
M14 = test system: M14
HT-29 = test system: HT-29
HCT-116 = test system: HCT-116
IGROV-1 = test system: IGROV-1
HOP-92 = test system: HOP-92
Malme-3M = test system: Malme-3M
OVCAR-8 = test system: OVCAR-8
SK-MEL-28 = test system: SK-MEL-28
OVCAR-3 = test system: OVCAR-3
OVCAR-4 = test system: OVCAR-4

What does the source list for `CC1=CC(c2ccccc2)OP1(=O)c1ccccc1` (configuration not stated)?
GI50 (HOP-62): > 100 µM (inactive); GI50 (DU-145): > 100 µM (inactive); GI50 (K562): > 100 µM (inactive); GI50 (MDA-N): > 100 µM (inactive); GI50 (SN12C): > 100 µM (inactive); GI50 (SK-MEL-5): > 100 µM (inactive); GI50 (EKVX): > 100 µM (inactive); GI50 (SK-MEL-2): > 100 µM (inactive); GI50 (786-0): > 100 µM (inactive); GI50 (NCI/ADR-RES): > 100 µM (inactive); GI50 (NCI-H23): > 100 µM (inactive); GI50 (HCC 2998): > 100 µM (inactive); GI50 (MCF7): > 100 µM (inactive); GI50 (NCI-H522): > 100 µM (inactive); GI50 (A498): > 100 µM (inactive); GI50 (CAKI-1): > 100 µM (inactive); GI50 (A549): > 100 µM (inactive); GI50 (SR): > 100 µM (inactive); GI50 (SF-295): > 100 µM (inactive); GI50 (HL-60): > 100 µM (inactive); GI50 (LOX IMVI): > 100 µM (inactive); GI50 (TK-10): > 100 µM (inactive); GI50 (SK-OV-3): > 100 µM (inactive); GI50 (U-251): > 100 µM (inactive); GI50 (ACHN): > 100 µM (inactive); GI50 (T47D): > 100 µM (inactive); GI50 (SF-539): > 100 µM (inactive); GI50 (NCI-H460): > 100 µM (inactive); GI50 (PC-3): > 100 µM (inactive); GI50 (NCI-H226): > 100 µM (inactive); GI50 (MDA-MB-435): > 100 µM (inactive); GI50 (SW-620): > 100 µM (inactive); GI50 (SF-268): > 100 µM (inactive); GI50 (OVCAR-5): > 100 µM (inactive); GI50 (COLO 205): > 100 µM (inactive); GI50 (UACC-257): > 100 µM (inactive); GI50 (Hs-578T): > 100 µM (inactive); GI50 (KM12): > 100 µM (inactive); GI50 (UACC-62): > 100 µM (inactive); GI50 (SNB-75): > 100 µM (inactive); GI50 (SNB-19): > 100 µM (inactive); GI50 (HCT-15): > 100 µM; GI50 (M14): > 100 µM (inactive); GI50 (HT-29): > 100 µM (inactive); GI50 (HCT-116): > 100 µM (inactive); GI50 (IGROV-1): > 100 µM (inactive); GI50 (HOP-92): > 100 µM (inactive); GI50 (Malme-3M): > 100 µM (inactive); GI50 (OVCAR-8): > 100 µM (inactive); GI50 (SK-MEL-28): > 100 µM (inactive); GI50 (OVCAR-3): > 100 µM (inactive); GI50 (OVCAR-4): > 100 µM (inactive)
